{"source": "patent EP0257993B1", "about": "“Nucleic acid fragment encoding herbicide resistant plant acetolactate synthase” (priority 1986, dated 1988)", "key": {"[1]": {"test_system": "tobacco callus", "settings": "Kanamycin, 50 mg/L", "method": "For plant cell transformations, standard aseptic techniques for the manipulation of sterile media and axenic plant/bacterial cultures were followed, including the use of a laminar flow hood for all transfers. Recipes for media are given in Example VI. Potted tobacco plants for leaf disk infections were grown in a growth chamber maintained for a 12 hr. 24°C day, 12 hr, 20°C night cycle, with approximately 80% relative humidity, under mixed cool white fluorescent and incandescent lights. Tobacco leaf disk infections were carried out essentially by the method of Horsch et al. (1985) Science 227, 1229.\nYoung leaves, not fully expanded and approximately 4-6 inches in length, were harvested with a scalpel from approximately 4-6 week old tobacco plants (Nicotiana tabacum var. Xanthi). The leaves were surface sterilized for 30 minutes by submerging them in approximately 500 ml of a 10% Chlorox, 0.1% SDS solution and then rinsed 3 times with sterile deionized water. Leaf disks, 6 mm in diameter, were prepared from whole leaves using a sterile paper punch.\nLeaf disks were inoculated by submerging them for several minutes in 20 ml of a 1:10 dilution of an overnight Agrobacterium culture carrying the plasmid GCKNT13. Agrobacterium cultures were started by inoculating 10 ml of YEB broth with a single bacterial colony removed form a R-agar plate. The culture was grown for approximately 17-20 hours in 18 mm glass culture tubes in a New Brunswick platform shaker maintained at 28°C.\nAfter inoculation, the leaf disks were placed in petri dishes containing CN agar medium. The dishes were sealed with paraflm and incubated under mixed fluorescent and \"Gro and Sho\" plant light (General Electric) for 2-3 days in a culture room maintained at approximately 25°C.\n[…] Cefotaxime was kept as a frozen 100 mg/ml stock solution and added aseptically (filter sterilized through a 0.45 µm filter) to the media after autoclaving. A fresh kanamycin stock (50 mg/ml) was made for each use and was filter sterilized into the autoclaved media.\nLeaf disks were incubated under the growth conditions described above for 3 weeks and then transferred to fresh media of the same composition.\nRoot formation on selective and non-selective media was recorded within 3 weeks.\nCallus growth on selective and non-selective media was recorded within 3 weeks."}, "[2]": {"test_system": "melon callus", "experiment": "Kanamycin selection of melon cotyledon explants", "assay_type": "cell-based, Cucumis melo cv. Amarillo Oro", "settings": "kanamycin at 100µm/l"}, "[3]": {"test_system": "calli of B. vulgaris", "experiment": "Chlorsulfuron resistance of sugarbeet calli", "assay_type": "cell-based, Beta vulgaris 87193", "from_the_text": "Selection for transformed plant cells was applied as follows. […] The number of resistant colonies was counted after 20-30 days. More than one may be observed at each wound. Transformants were excised as follows. Callus was removed from the wound/explant with a surgical blade and cultured independently on fresh selective media. Some Agrobacterium can escape from counter-selection. Additional washes in cefotaxime containing liquid media are possible, as is repeated transfer to cefotaxime containing agar solidified plates. […]"}, "[4]": {"test_system": "Brassica napus", "experiment": "Brassica napus plants sprayed with chlorsulfuron", "assay_type": "in vivo, Brassica napus cv. Olga"}, "[5]": {"test_system": "ALS", "assay_type": "biochemical, Nicotiana tabacum", "settings": "C3 and S4 lines", "method": "Callus cultures of sensitive tobacco (Nicotiana tabacum var. Xanthi) were exposed to sulfometuron methyl at 2 ppb according to the method described by Chaleff, U.S. 4,443,971. […] Plants were regenerated from Hra callus cultures. […] ALS activity in extracts of leaves of wild type and homozygous Hra mutant tobacco plants was determined."}}, "note": "Where two headings read alike, the source gives them in different places.", "data": [{"smiles": "NC[C@H]1O[C@H](O[C@H]2[C@H](O)[C@@H](O[C@H]3O[C@H](CO)[C@@H](O)[C@H](N)[C@H]3O)[C@H](N)C[C@@H]2N)[C@H](O)[C@@H](O)[C@@H]1O", "note": "[Kanamycin]", "values": [{"measurement": "Number of transformed shoot explants producing callus on selective and non-selective media", "setting": "[1]; EXP. #1, GV3850", "result": "0/10"}, {"measurement": "Number of transformed shoot explants producing callus on selective and non-selective media", "setting": "[1]; EXP. #1, GVKK", "result": "8/13"}, {"measurement": "Number of transformed shoot explants producing callus on selective and non-selective media", "setting": "[1]; EXP. #1, GVKNT13", "result": "53/62"}, {"measurement": "Number of transformed shoot explants producing callus on selective and non-selective media", "setting": "[1]; Exp. #2, GV3850", "result": "0/25"}, {"measurement": "Number of transformed shoot explants producing callus on selective and non-selective media", "setting": "[1]; Exp. #2, GVKK", "result": "16/23"}, {"measurement": "Number of transformed shoot explants producing callus on selective and non-selective media", "setting": "[1]; Exp. #2, GVKNT13", "result": "81/102"}, {"measurement": "explants that developed callus resistant to kanamycin", "setting": "[2]", "result": "Approximately 70%"}]}, {"smiles": "COc1nc(C)nc(NC(=O)NS(=O)(=O)c2ccccc2Cl)n1", "note": "[chlorsulfuron]", "values": [{"measurement": "level of chlorsulfuron resistance in calli of B. vulgaris", "setting": "[3]; 87193/0 (untransformed), Chlorsulfuron 10 ppb", "result": "0/15"}, {"measurement": "level of chlorsulfuron resistance in calli of B. vulgaris", "setting": "[3]; 87193/0 (untransformed), Chlorsulfuron 30 ppb", "result": "0/15"}, {"measurement": "level of chlorsulfuron resistance in calli of B. vulgaris", "setting": "[3]; 87193/152 (transformed, pAGS152), Chlorsulfuron 10 ppb", "result": "15/15"}, {"measurement": "level of chlorsulfuron resistance in calli of B. vulgaris", "setting": "[3]; 87193/152 (transformed, pAGS152), Chlorsulfuron 30 ppb", "result": "15/15"}, {"measurement": "level of chlorsulfuron resistance in calli of B. vulgaris", "setting": "[3]; 87193/152 (transformed, pAGS152), Chlorsulfuron 100 ppb", "result": "15/15"}, {"measurement": "level of chlorsulfuron resistance in calli of B. vulgaris", "setting": "[3]; 87193/152 (transformed, pAGS152), Chlorsulfuron 300 ppb", "result": "15/15"}, {"measurement": "level of chlorsulfuron resistance in calli of B. vulgaris", "setting": "[3]; 87193/152 (transformed, pAGS152), Chlorsulfuron 1000 ppb", "result": "15/15"}, {"measurement": "level of chlorsulfuron resistance in calli of B. vulgaris", "setting": "[3]; 87193/152 (transformed, pAGS152), Chlorsulfuron 3000 ppb", "result": "3/15"}, {"measurement": "level of chlorsulfuron resistance in calli of B. vulgaris", "setting": "[3]; 87193/152 (transformed, pAGS152), Chlorsulfuron 10000 ppb", "result": "0/15"}, {"measurement": "growth of plants sprayed with chlorsulfuron", "setting": "[4]; Ro #1, 0.3 ppm", "result": "++"}, {"measurement": "growth of plants sprayed with chlorsulfuron", "setting": "[4]; Ro #1, 1 ppm", "result": "++"}, {"measurement": "growth of plants sprayed with chlorsulfuron", "setting": "[4]; Ro #1, 3 ppm", "result": "++"}, {"measurement": "growth of plants sprayed with chlorsulfuron", "setting": "[4]; Ro #1, 10 ppm", "result": "+"}, {"measurement": "growth of plants sprayed with chlorsulfuron", "setting": "[4]; Ro #2, 0.3 ppm", "result": "++"}, {"measurement": "growth of plants sprayed with chlorsulfuron", "setting": "[4]; Ro #2, 1 ppm", "result": "+"}, {"measurement": "growth of plants sprayed with chlorsulfuron", "setting": "[4]; Ro #2, 3 ppm", "result": "-"}, {"measurement": "growth of plants sprayed with chlorsulfuron", "setting": "[4]; Ro #2, 10 ppm", "result": "-"}, {"measurement": "growth of plants sprayed with chlorsulfuron", "setting": "[4]; Ro #3, 0.3 ppm", "result": "++"}, {"measurement": "growth of plants sprayed with chlorsulfuron", "setting": "[4]; Ro #3, 1 ppm", "result": "+"}, {"measurement": "growth of plants sprayed with chlorsulfuron", "setting": "[4]; Ro #3, 3 ppm", "result": "+"}, {"measurement": "growth of plants sprayed with chlorsulfuron", "setting": "[4]; Ro #3, 10 ppm", "result": "-"}, {"measurement": "growth of plants sprayed with chlorsulfuron", "setting": "[4]; Ro #4, 0.3 ppm", "result": "++"}, {"measurement": "growth of plants sprayed with chlorsulfuron", "setting": "[4]; Ro #4, 1 ppm", "result": "+"}, {"measurement": "growth of plants sprayed with chlorsulfuron", "setting": "[4]; Ro #4, 3 ppm", "result": "-"}, {"measurement": "growth of plants sprayed with chlorsulfuron", "setting": "[4]; Ro #4, 10 ppm", "result": "-"}, {"measurement": "growth of plants sprayed with chlorsulfuron", "setting": "[4]; Ro #5, 0.3 ppm", "result": "+++"}, {"measurement": "growth of plants sprayed with chlorsulfuron", "setting": "[4]; Ro #5, 1 ppm", "result": "++"}, {"measurement": "growth of plants sprayed with chlorsulfuron", "setting": "[4]; Ro #5, 3 ppm", "result": "++"}, {"measurement": "growth of plants sprayed with chlorsulfuron", "setting": "[4]; Ro #5, 10 ppm", "result": "+"}, {"measurement": "growth of plants sprayed with chlorsulfuron", "setting": "[4]; untransformed, 0.3 ppm", "result": "++"}, {"measurement": "growth of plants sprayed with chlorsulfuron", "setting": "[4]; untransformed, 1 ppm", "result": "+"}, {"measurement": "growth of plants sprayed with chlorsulfuron", "setting": "[4]; untransformed, 3 ppm", "result": "-"}, {"measurement": "growth of plants sprayed with chlorsulfuron", "setting": "[4]; untransformed, 10 ppm", "result": "-"}, {"measurement": "resistance of ALS enzyme activity compared with ALS from wild type", "setting": "[5]", "result": "one-hundred fold"}]}]}
